Like-named read-outs stand apart in the source and are kept apart here.
Tested on: genotype 1b (Con-1) HCV replicon
Test: HCV Replicon Luciferase Assay
Type: cell-based
Details: Hepatitis C virus, 72 h, Huh-7 genotype 1b replicon, Renilla luciferase, 3 days incubation
Method: The cell lines used to evaluate compounds consist of a human hepatocyte derived cell line (Huh-7) that constitutively expresses a genotype 1b (Con-1) HCV replicon or a genotype 1b (Con-1) HCV replicon with an asparagine replacing the cysteine at amino acid 316, or a genotype 2a (JFH-1) replicon, containing a Renilla luciferase reporter gene. These cells were maintained in Dulbecco's modified Eagle medium (DMEM) containing 10% FBS, 100 U/mL penicillin/streptomycin and 1.0 mg/mL G418.
To evaluate compound efficacy, titrated compounds were transferred to sterile 384-well tissue culture treated plates, and the plates were seeded with HCV replicon cells (50 μL at a density of 2.4×10^3 cells/well) in DMEM containing 4% FBS (final DMSO concentration at 0.5%). After 3 days incubation at 37° C., cells were analyzed for Renilla Luciferase activity using the EnduRen substrate (Promega cat #E6485) according to the manufacturer's directions. Briefly, the EnduRen substrate was diluted in DMEM and then added to the plates to a final concentration of 7.5 μM. The plates were incubated for at least 1 h at 37° C. then read on a Viewlux Imager (PerkinElmer) using a luminescence program. The 50% effective concentration (EC50) was calculated using the four-parameter logistic Formula noted above.
Compound EC50 data is expressed as A: <100 nM; B=100-1000 nM; C>1000 nM).

SMILES | EC50 (read-out: EC50 1b (class)) [µM] | EC50 (read-out: EC50 (uM) 1b) [µM]
CNC(=O)c1c(-c2ccc(F)cc2)oc2cc(N(CCCF)S(C)(=O)=O)c(-c3cccc(C(=O)NCC(F)(F)F)c3)cc12 [Compound 4010] | < 0.1 | –
C#CC(CC)(CC)NC(=O)c1cccc(-c2cc3c(C(=O)NC)c(-c4ccc(F)cc4)oc3cc2N(CCCF)S(C)(=O)=O)c1 [Compound 4028] | < 0.1 | 0.0056
CNC(=O)c1c(-c2ccc(F)cc2)oc2cc(N(CC(F)F)S(C)(=O)=O)c(-c3cccc(C(=O)NC(CF)(CF)CF)c3)cc12 [Compound 7004] | < 0.1 | –
CNC(=O)c1c(-c2ccc(F)cc2)oc2cc(N(CCF)S(C)(=O)=O)c(-c3cccc(C(=O)N4CCC[C@H]4CO)c3)cc12 [Compound 3035] | 0.1 to 1 | –
CNC(=O)c1c(-c2ccc(F)cc2)oc2cc(N(CCF)S(C)(=O)=O)c(-c3cccc(C(=O)N4CCN(c5ccc(Cl)cc5)CC4)c3)cc12 [Compound 3020] | < 0.1 | 0.0094
CNC(=O)c1c(-c2ccc(F)cc2)oc2cc(N(CCF)S(C)(=O)=O)c(-c3cccc(C(=O)N4CCN(C)CC4c4ccccc4)c3)cc12 (stereo not drawn) [Compound 3019] | < 0.1 | –
CNC(=O)c1c(-c2ccc(F)cc2)oc2cc(N(CCF)S(C)(=O)=O)c(-c3cccc(C(=O)NC(C)(C)C(=O)OC)c3)cc12 [Compound 3014] | < 0.1 | –
C#CC(C)(CC)NC(=O)c1cccc(-c2cc3c(C(=O)NC)c(-c4ccc(F)cc4)oc3cc2N(CCCF)S(C)(=O)=O)c1 (stereo not drawn) [Compound 4029] | < 0.1 | 0.0059
CNC(=O)c1c(-c2ccc(F)cc2)oc2cc(N(CCCF)S(C)(=O)=O)c(-c3cccc(C(=O)NC(C)(C)C(=O)OC)c3)cc12 [Compound 4013] | < 0.1 | –
[2H]C([2H])([2H])C(NC(=O)c1cccc(-c2cc3c(C(=O)NC)c(-c4ccc(F)cc4)oc3cc2N(CCCF)S(C)(=O)=O)c1)(C([2H])([2H])[2H])C([2H])([2H])[2H] [Compound 4006] | < 0.1 | –
CNC(=O)c1c(-c2ccc(F)cc2)oc2cc(N(CCF)S(C)(=O)=O)c(-c3cccc(C(=O)NC(C)(C)CF)c3)cc12 [Compound 3013] | < 0.1 | –
CNC(=O)c1c(-c2ccc(F)cc2)oc2cc(N(CCCF)S(C)(=O)=O)c(-c3cccc(C(=O)N[C@H](C)C(F)(F)F)c3)cc12 [Compound 4030] | < 0.1 | –
CNC(=O)c1c(-c2ccc(F)cc2)oc2cc(N(CCF)S(C)(=O)=O)c(-c3cccc(C(=O)N4CCCC4c4ccc(Cl)cc4)c3)cc12 (stereo not drawn) [Compound 3018] | < 0.1 | –
CNC(=O)c1c(-c2ccc(F)cc2)oc2cc(N(CCF)S(C)(=O)=O)c(-c3cccc(C(=O)NC(C4CC4)C4CC4)c3)cc12 [Compound 3010] | < 0.1 | 0.0056
CNC(=O)c1c(-c2ccc(F)cc2)oc2cc(N(CCC(F)(F)F)S(C)(=O)=O)c(-c3cccc(C(=O)O)c3)cc12 [Compound 9002] | > 1 | –
CCCC1CN(C(=O)c2ccccc2)CCN1C(=O)c1cccc(-c2cc3c(C(=O)NC)c(-c4ccc(F)cc4)oc3cc2N(CCF)S(C)(=O)=O)c1 (stereo not drawn) [Compound 3043] | < 0.1 | –
CNC(=O)c1c(-c2ccc(F)cc2)oc2cc(N(CCF)S(C)(=O)=O)c(-c3cccc(C(=O)N4CCC(c5ccc(F)cc5)C4)c3)cc12 (stereo not drawn) [Compound 3034] | < 0.1 | 0.0117
CNC(=O)c1c(-c2ccc(F)cc2)oc2cc(N(CC#N)S(C)(=O)=O)c(-c3cccc(C(=O)NC(C)(C)C(F)(F)F)c3)cc12 [Compound 1002] | < 0.1 | –
CNC(=O)c1c(-c2ccc(F)cc2)oc2cc(N(CCF)S(C)(=O)=O)c(-c3cccc(C(=O)N4CCC[C@H]4C(=O)OC(C)(C)C)c3)cc12 [Compound 3029] | < 0.1 | –
CNC(=O)c1c(-c2ccc(F)cc2)oc2cc(N(C(F)F)S(C)(=O)=O)c(-c3cccc(C(=O)NC(CF)(CF)CF)c3)cc12 [Compound 6005] | < 0.1 | –
[2H]C([2H])([2H])C(NC(=O)c1cccc(-c2cc3c(C(=O)NC)c(-c4ccc(F)cc4)oc3cc2N(CCF)S(C)(=O)=O)c1)(C([2H])([2H])[2H])C([2H])([2H])[2H] [Compound 3006] | < 0.1 | –
[2H]C([2H])([2H])C(NC(=O)c1cccc(-c2cc3c(C(=O)NC)c(-c4ccc(F)cc4)oc3cc2N(C(F)F)S(C)(=O)=O)c1)(C([2H])([2H])[2H])C([2H])([2H])[2H] [Compound 6006] | < 0.1 | –
CNC(=O)c1c(-c2ccc(F)cc2)oc2cc(N(CC3CC3)S(C)(=O)=O)c(-c3cccc(C(=O)OC)c3)cc12 [Compound 2001] | < 0.1 | –
CNC(=O)c1c(-c2ccc(F)cc2)oc2cc(N(CCCF)S(C)(=O)=O)c(-c3cccc(C(=O)NC(C)C(F)(F)F)c3)cc12 (stereo not drawn) [Compound 4003] | < 0.1 | 0.0093
CNC(=O)c1c(-c2ccc(F)cc2)oc2cc(N(CCF)S(C)(=O)=O)c(-c3cccc(C(=O)N4CCC(C)(C)C4)c3)cc12 [Compound 3017] | < 0.1 | 0.0063

SMILES | EC50 (read-out: EC50 1b (class)) [µM] | EC50 (read-out: EC50 (uM) 1b) [µM]
CNC(=O)c1c(-c2ccc(F)cc2)oc2cc(N(CCCF)S(C)(=O)=O)c(-c3cccc(C(=O)NC(C)(C)CF)c3)cc12 [Compound 4008] | < 0.1 | –
CNC(=O)c1c(-c2ccc(F)cc2)oc2cc(N(CCCF)S(C)(=O)=O)c(-c3cccc(C(=O)NC4(C(F)(F)F)CC4)c3)cc12 [Compound 4023] | < 0.1 | –
CNC(=O)c1c(-c2ccc(F)cc2)oc2cc(N(CCF)S(C)(=O)=O)c(-c3cccc(C(=O)N4[C@@H](COC)CC[C@@H]4COC)c3)cc12 [Compound 3026] | 0.1 to 1 | 0.332
CC[C@H](NC(=O)c1cccc(-c2cc3c(C(=O)NC)c(-c4ccc(F)cc4)oc3cc2N(CCF)S(C)(=O)=O)c1)C1CC1 [Compound 3008] | < 0.1 | –
CNC(=O)c1c(-c2ccc(F)cc2)oc2cc(N(CCF)S(C)(=O)=O)c(-c3cccc(C(=O)NC(C)(C)C)c3)cc12 [Compound 3016] | < 0.1 | –
CNC(=O)c1c(-c2ccc(F)cc2)oc2cc(N(CCF)S(C)(=O)=O)c(-c3cccc(C(=O)N4CCC[C@@H]4CO)c3)cc12 [Compound 3030] | 0.1 to 1 | 0.139
CNC(=O)c1c(-c2ccc(F)cc2)oc2cc(N(CCCF)S(C)(=O)=O)c(-c3cccc(C(=O)NC(CF)(CF)CF)c3)cc12 [Compound 4004] | < 0.1 | –
CNC(=O)c1c(-c2ccc(F)cc2)oc2cc(N(CC(F)F)S(C)(=O)=O)c(-c3cccc(C(=O)NC(C)(C)C(F)(F)F)c3)cc12 [Compound 7003] | < 0.1 | –
CNC(=O)c1c(-c2ccc(F)cc2)oc2cc(N(CCCF)S(C)(=O)=O)c(-c3cccc(C(=O)NCC(C)(F)F)c3)cc12 [Compound 4019] | < 0.1 | 0.0098
CNC(=O)c1c(-c2ccc(F)cc2)oc2cc(N(CCF)S(C)(=O)=O)c(-c3cccc(C(=O)N4CCC(c5cccc(Cl)c5)C4)c3)cc12 (stereo not drawn) [Compound 3040] | < 0.1 | 0.0413
CNC(=O)c1c(-c2ccc(F)cc2)oc2cc(NCCCF)c(-c3cccc(C(=O)NC(C)(C#N)C4CC4)c3)cc12 (stereo not drawn) [Compound 5004] | < 0.1 | –
CNC(=O)c1c(-c2ccc(F)cc2)oc2cc(N(CCCF)S(C)(=O)=O)c(-c3cccc(C(=O)N[C@@H](C)C(F)(F)F)c3)cc12 [Compound 4021] | < 0.1 | –
CNC(=O)c1c(-c2ccc(F)cc2)oc2cc(N(CCF)S(C)(=O)=O)c(-c3cccc(C(=O)NCC(C)(C)C)c3)cc12 [Compound 3015] | < 0.1 | –
CNC(=O)c1c(-c2ccc(F)cc2)oc2cc(N(CCF)S(C)(=O)=O)c(-c3cccc(C(=O)N4CC[C@H](O)C4)c3)cc12 [Compound 3037] | > 1 | –
CNC(=O)c1c(-c2ccc(F)cc2)oc2cc(N(CCF)S(C)(=O)=O)c(-c3cccc(C(=O)N4CC(NC(=O)OC(C)(C)C)C4)c3)cc12 [Compound 3042] | 0.1 to 1 | 0.138
CNC(=O)c1c(-c2ccc(F)cc2)oc2cc(N(CCF)S(C)(=O)=O)c(-c3cccc(C(=O)N4CCCC4c4cccnc4)c3)cc12 (stereo not drawn) [Compound 3022] | < 0.1 | –
CNC(=O)c1c(-c2ccc(F)cc2)oc2cc(N(CCCF)S(C)(=O)=O)c(-c3cccc(C(=O)NC(C)(C)C)c3)cc12 [Compound 4011] | < 0.1 | –
CNC(=O)c1c(-c2ccc(F)cc2)oc2cc(N(CC3CC3)S(C)(=O)=O)c(-c3cccc(C(=O)O)c3)cc12 [Compound 2002] | > 1 | 7.55
CNC(=O)c1c(-c2ccc(F)cc2)oc2cc(N(CCF)S(C)(=O)=O)c(-c3cccc(C(=O)N4CCN(C(=O)OC(C)(C)C)CC4)c3)cc12 [Compound 3028] | < 0.1 | –
CNC(=O)c1c(-c2ccc(F)cc2)oc2cc(N(CCC(F)(F)F)S(C)(=O)=O)c(-c3cccc(C(=O)NC(C)(C)CF)c3)cc12 [Compound 9007] | < 0.1 | –
CNC(=O)c1c(-c2ccc(F)cc2)oc2cc(N(CCF)S(C)(=O)=O)c(-c3cccc(C(=O)N4CCN(c5ccccc5)CC4)c3)cc12 [Compound 3025] | < 0.1 | –
CNC(=O)c1c(-c2ccc(F)cc2)oc2cc(N(CCF)S(C)(=O)=O)c(-c3cccc(C(=O)N4CCN(C(=O)OC(C)(C)C)CC4c4ccccc4)c3)cc12 (stereo not drawn) [Compound 3031] | < 0.1 | –
CNC(=O)c1c(-c2ccc(F)cc2)oc2cc(N(CCF)S(C)(=O)=O)c(-c3cccc(C(=O)NC(C)(C)C#N)c3)cc12 [Compound 3005] | < 0.1 | 0.005
CNC(=O)c1c(-c2ccc(F)cc2)oc2cc(N(CCF)S(C)(=O)=O)c(-c3cccc(C(=O)NC4(C#N)CC4)c3)cc12 [Compound 3011] | < 0.1 | –

Reference: patent publication US10125111B2, “Benzofuran compounds for the treatment of hepatitis C” (BRISTOL-MYERS SQUIBB COMPANY, priority 2015, dated 2018)
